Experimental data as given in PubChem BioAssay AID1963831 (Molecular Pharmacology Branch, DTP, NCI, 2024).

Tested on: 889142-216-R-J1-PDC complex spheroid viability
Experiment: Anticancer human tumor 889142-216-R-J1-PDC patient-derived bladder carcinoma cell line growth inhibition [POLQ]
Details: for IC50: curve of first compound; for viability, T/C: stronger effect = lower value
Method: Multicellular complex tumor spheroid response to Polymerase (POL) inhibitors (novobiocin, ART-558, RP6685) in combination with a variety of drugs and investigational agents in selected tumor cell lines
The POL inhibitors (novobiocin, ART-558, and RP6685) were evaluated both individually and in combination with standard of care and investigational anticancer small molecules within a complex spheroid model of solid tumors. . Complex spheroids include a stromal component modeled by human endothelial cells (HUVEC) and fibroblasts modeled by human mesenchymal stem cells (MSCs). The concentration ranges selected for each drug and investigational agent were based upon clinically achievable concentrations if the clinical Cmax of the agent was known.
Compounds. The drugs and investigational agents: novobiocin (NSC847541), ART-558 (NSC835418), RP-6685 (NSC848927), peposertib (NSC802822), ceralasertib (NSC780249), elimusertib (NSC800525), camonsertib (NSC841442), AZD-1390 (NSC803789), olaparib (NSC753686), talazoparib (NSC767125), rucaparib (NSC756644), sotorasib (NSC818433), MRTX-1133 (NSC836407), SN-38 (NSC673596), topotecan (NSC609699), epotoside (NSC141540), doxorubicin (NSC123127), gemcitabine (NSC613327), 5-fluorouracil (NSC19893), paclitaxel (NSC125973), vemurafenib (NSC761431), MSA-2 (NSC828583), SN-011 (NSC837082), adavosertib (NSC754352), prexasertib (NSC758257), carboplatin (NSC241240) and oxaliplatin (NSC266046), were obtained from the National Cancer Institute (NCI) Developmental Therapeutics Program Chemical Repository (21). The FDA-approved anticancer drug set is available from the Developmental Therapeutics Program at https://dtp.cancer.gov/organization/dscb/obtaining/. […] The stock solutions were prepared in dimethyl sulfoxide (DMSO, Sigma-Aldrich, St. Louis, MO, cat. D2650), except for the platinum compounds which were prepared in saline (Quality Biological, Gaithersburg, MD, cat. 114-055-101), at 800-fold the tested concentration and stored at -70 degrees C prior to their use. All drugs and investigational agents were tested over a range starting from a high concentration at or near the clinical Cmax and decreasing in half-log increments. If the clinical Cmax for an agent had not been determined, the highest concentration tested was 10 microM, except for SN-38, which was tested at a high concentration of 1 microM.
Cell Culture. All cells were maintained in an incubator at 37 degrees C and 5% CO2 with 95% humidity. The PDC lines were cultured according to standard operating procedures established by the NCI PDMR (https://pdmr.cancer.gov). Table 3 of the manuscript, lists the cell lines along with the number of the three cell types plated to form the mct-spheroids and media for tumor cell growth. After thawing, all PDC lines, except 997537-175-T-J1-PDC and 415267-285-R-J2-PDC, were cultured in Matrigel-coated flasks prepared with a working solution of 1X Ham's F-12 nutrient mix, without supplementation (Thermo Fisher Scientific, cat. 11765054), 100 U/mL penicillin-streptomycin (Thermo Fisher Scientific, cat. 15140122), and 2.5% Matrigel (Corning Inc., Corning, NY, cat. 354248) for the first three passages. The two PDC lines 997537-175-T-J1-PDC and 415267-285-R-J2-PDC were cultured on uncoated flasks. The 857933-349-R-J2-PDC line was cultured in 6C/Colon 1B media containing advanced DMEM/F-12 (Thermo Fisher Scientific, cat. 12634028), 10 mM HEPES (Thermo Fisher Scientific, cat. 15630080), 1X GlutaMAX supplement (Thermo Fisher Scientific, cat. 35050061), 0.1 mg/mL primocin (InvivoGen, San Diego, CA, cat. ant-pm-2), 10% defined fetal bovine serum, heat inactivated (HyClone Laboratories Inc., Logan, UT, cat. SH30070.03HI), 50% L-WRN conditioned media (ATCC, cat. CRL-3276), 1.25 mM N-Acetyl-L-cysteine (Sigma-Aldrich, cat. A9165), 10 mM nicotinamide (Sigma-Aldrich, cat. N0636), 1X B-27 supplement (Thermo Fisher Scientific, cat. 17504044), 1X N-2 supplement (Thermo Fisher Scientific, cat. […]

[1] = second compound 0.0316 µM, first compound 0.0316 µM
[2] = second compound 0.0316 µM, first compound 0.1 µM
[3] = second compound 0.0316 µM, first compound 0.316 µM
[4] = second compound 0.0316 µM, first compound 1 µM
[5] = second compound 0.1 µM, first compound 0.0316 µM
[6] = second compound 0.1 µM, first compound 0.1 µM
[7] = second compound 0.1 µM, first compound 0.316 µM
[8] = second compound 0.1 µM, first compound 1 µM
[9] = second compound 0.316 µM, first compound 0.0316 µM
[10] = second compound 0.316 µM, first compound 0.1 µM
[11] = second compound 0.316 µM, first compound 0.316 µM
[12] = second compound 0.316 µM, first compound 1 µM
[13] = second compound 1 µM, first compound 0.0316 µM
[14] = second compound 1 µM, first compound 0.1 µM
[15] = second compound 1 µM, first compound 0.316 µM
[16] = second compound 1 µM, first compound 1 µM
[17] = second compound 3.16 µM, first compound 0.0316 µM
[18] = second compound 3.16 µM, first compound 0.1 µM
[19] = second compound 3.16 µM, first compound 0.316 µM
[20] = second compound 3.16 µM, first compound 1 µM
[21] = second compound 10 µM, first compound 0.0316 µM
[22] = second compound 10 µM, first compound 0.1 µM
[23] = second compound 10 µM, first compound 0.316 µM
[24] = second compound 10 µM, first compound 1 µM
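Further: spheroids exposed to compounds for seven days.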
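Wherever viability, T/C is given: 100% = DMSO vehicle control viability.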

SMILES: C=CCn1c(=O)c2cnc(Nc3ccc(N4CCN(C)CC4)cc3)nc2n1-c1cccc(C(C)(C)O)n1 + COC1C(OC(N)=O)C(O)C(Oc2ccc3c(O)c(NC(=O)c4ccc(O)c(CC=C(C)C)c4)c(=O)oc3c2C)OC1(C)C
- IC50 (second compound 0.0316 µM): > 1 µM
- IC50 (second compound 0.1 µM): > 1 µM
- IC50 (second compound 0.316 µM): > 1 µM
- IC50 (second compound 1 µM): > 1 µM
- IC50 (second compound 3.16 µM): > 1 µM
- IC50 (second compound 10 µM): > 1 µM
- viability, T/C (second compound 0.0316 µM, first compound 0.00316 µM): 97.1%
- viability, T/C (second compound 0.0316 µM, first compound 0.01 µM): 152%
- viability, T/C [1]: 86.6%
- viability, T/C [2]: 83.1%
- viability, T/C [3]: 66.1%
- viability, T/C [4]: 52%
- viability, T/C (second compound 0.1 µM, first compound 0.00316 µM): 98.3%
- viability, T/C (second compound 0.1 µM, first compound 0.01 µM): 111%
- viability, T/C [5]: 108%
- viability, T/C [6]: 81.2%
- viability, T/C [7]: 60.9%
- viability, T/C [8]: 57.5%
- viability, T/C (second compound 0.316 µM, first compound 0.00316 µM): 100%
- viability, T/C (second compound 0.316 µM, first compound 0.01 µM): 125%
- viability, T/C [9]: 103%
- viability, T/C [10]: 86.4%
- viability, T/C [11]: 63.6%
- viability, T/C [12]: 54.7%
- viability, T/C (second compound 1 µM, first compound 0.00316 µM): 112%
- viability, T/C (second compound 1 µM, first compound 0.01 µM): 110%
- viability, T/C [13]: 113%
- viability, T/C [14]: 89.5%
- viability, T/C [15]: 68.6%
- viability, T/C [16]: 57%
- viability, T/C (second compound 3.16 µM, first compound 0.00316 µM): 90.2%
- viability, T/C (second compound 3.16 µM, first compound 0.01 µM): 99.6%
- viability, T/C [17]: 85.4%
- viability, T/C [18]: 108%
- viability, T/C [19]: 64.5%
- viability, T/C [20]: 50.2%
- viability, T/C (second compound 10 µM, first compound 0.00316 µM): 127%
- viability, T/C (second compound 10 µM, first compound 0.01 µM): 116%
- viability, T/C [21]: 97.8%
- viability, T/C [22]: 85.9%
- viability, T/C [23]: 62.5%
- viability, T/C [24]: 51.8%

SMILES: CNCc1ccc(-c2[nH]c3cc(F)cc4c3c2CCNC4=O)cc1 + COC1C(OC(N)=O)C(O)C(Oc2ccc3c(O)c(NC(=O)c4ccc(O)c(CC=C(C)C)c4)c(=O)oc3c2C)OC1(C)C
- IC50 (second compound 0.0316 µM): > 10 µM
- IC50 (second compound 0.1 µM): > 10 µM
- IC50 (second compound 0.316 µM): > 10 µM
- IC50 (second compound 1 µM): > 10 µM
- IC50 (second compound 3.16 µM): > 10 µM
- IC50 (second compound 10 µM): > 10 µM
- viability, T/C [1]: 120%
- viability, T/C [2]: 97.3%
- viability, T/C [3]: 100%
- viability, T/C [4]: 105%
- viability, T/C (second compound 0.0316 µM, first compound 3.16 µM): 97.2%
- viability, T/C (second compound 0.0316 µM, first compound 10 µM): 79.5%
- viability, T/C [5]: 109%
- viability, T/C [6]: 107%
- viability, T/C [7]: 96.4%
- viability, T/C [8]: 93.2%
- viability, T/C (second compound 0.1 µM, first compound 3.16 µM): 98.1%
- viability, T/C (second compound 0.1 µM, first compound 10 µM): 85.4%
- viability, T/C [9]: 103%
- viability, T/C [10]: 98.6%
- viability, T/C [11]: 90.6%
- viability, T/C [12]: 122%
- viability, T/C (second compound 0.316 µM, first compound 3.16 µM): 97.6%
- viability, T/C (second compound 0.316 µM, first compound 10 µM): 58.2%
- viability, T/C [13]: 96.8%
- viability, T/C [14]: 92.6%
- viability, T/C [15]: 103%
- viability, T/C [16]: 94.3%
- viability, T/C (second compound 1 µM, first compound 3.16 µM): 82.6%
- viability, T/C (second compound 1 µM, first compound 10 µM): 84.2%
- viability, T/C [17]: 89.2%
- viability, T/C [18]: 106%
- viability, T/C [19]: 92%
- viability, T/C [20]: 83.9%
- viability, T/C (second compound 3.16 µM, first compound 3.16 µM): 93.2%
- viability, T/C (second compound 3.16 µM, first compound 10 µM): 89.3%
- viability, T/C [21]: 115%
- viability, T/C [22]: 98.2%
- viability, T/C [23]: 88.5%
- viability, T/C [24]: 83.4%
- viability, T/C (second compound 10 µM, first compound 3.16 µM): 104%
- viability, T/C (second compound 10 µM, first compound 10 µM): 84%
